Measured values: the supplement of paper PMC5579334

What was measured:
HS-PSS [1] = assay: relative IC50 (inflection point of fitted dose-response curve, CellTox-Green cytotoxicity, 72 h; top asymptote may be below 50%); higher = less potent
In short: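 MPNST cell lines and primary human Schwann cells were grown for 72 h at 37 °C in 384-well plates containing five 10-fold compound dilutions. CellTox-Green, added before seeding at a final 1:1000 dilution, gave fluorescence from DNA released by disrupted cells, and signals were scaled to vehicle and positive-control wells. Curves were fitted with a four-parameter logistic model. Drug sensitivity score and relative IC50 come from these fits, with IC50 censored at the top concentration.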

HS-PSS [2] = assay: relative IC50 (inflection point of fitted dose-response curve, CellTiter-Glo viability, 72 h; top asymptote may be below 50% inhibition); higher = less potent
In short: (§1)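 Viability of MPNST cell lines and primary human Schwann cells was read as CellTiter-Glo ATP luminescence after 72 h at 37 °C, 5% CO2, in 384-well plates seeded with 750–1000 cells per well. Each compound had been preprinted at five concentrations in 10-fold steps. Signals were scaled between vehicle and positive-control wells, duplicates averaged where present, and fitted with four-parameter logistic curves. Drug sensitivity score and relative IC50 (censored at the top concentration) come from those fits, and percent inhibition is taken at the top concentration.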

HS-Sch-2 = assay: as above
In short: as §1

YST-1 = assay: as above
In short: as §1

Row | Structure (SMILES) | relative IC50 (HS-PSS [1]) [nM] | relative IC50 (HS-PSS [2]) [nM] | relative IC50 (HS-Sch-2) [nM] | relative IC50 (YST-1) [nM]
1 | Cc1cc(C(=O)NOCCO)c(Nc2ccc(I)cc2F)n(C)c1=O [AZD-8330] | > 10000 | 322 | 174 | > 10000
2 | CN(C)Cc1c(C(=O)NCCOc2ccc(C(=O)NO)cc2)oc2ccccc12 [Abexinostat] | 1430 | 333 | 197 | 72.3
3 | COc1cccc2c1C(=O)c1c(O)c3c(c(O)c1C2=O)C[C@@](O)(/C(CO)=N/NC(=O)CCCCCN1C(=O)C=CC1=O)C[C@@H]3O[C@H]1C[C@H](N)[C@H](O)[C@H](C)O1 [Aldoxorubicin] | 181 | 158 | 105 | 51.5
4 | S=C(NCc1ccc2c(c1)OCO2)N1CCN(c2ncnc3c2oc2ccccc23)CC1 [Amuvatinib] | > 10000 | 1010 | 2070 | 3540
5 | Cc1c(CN2CCN(C(=O)[C@H](C)O)CC2)sc2c(N3CCOCC3)nc(-c3cnc(N)nc3)nc12 [Apitolisib] | > 10000 | 715 | 732 | 167
6 | O=C(Nc1cccc(Nc2ncc(Br)c(NCCc3cnc[nH]3)n2)c1)N1CCCC1 [BX-912] | > 10000 | 1930 | 2750 | 867
7 | CCS(=O)(=O)N1CC(CC#N)(n2cc(-c3ncnc4[nH]ccc34)cn2)C1 [Baricitinib] | > 2500 | > 2500 | > 2500 | > 2500
8 | CN(C)c1cc2c(cc1Sc1nc3c(N)nccc3n1CCNCC(C)(C)C)OCO2 [CUDC-305] | 384 | 510 | 219 | 516
9 | COc1ccc(-c2nc(N3CCOCC3)c3sc(CN(C)c4ncc(C(=O)NO)cn4)cc3n2)cn1 [CUDC-907] | 66.7 | 20.7 | 24.3 | 3.12
10 | Cc1nc(N)sc1-c1ccnc(Nc2ccc(N3CCOCC3)cc2)n1 [CYC-116] | > 10000 | 1390 | 1580 | 510
11 | CC[C@@]1(O)C(=O)OCc2c1cc1n(c2=O)Cc2cc3ccccc3nc2-1 [Camptothecin] | 358 | 199 | 63.4 | 40.1
12 | CCS(=O)(=O)N1CCN(c2ccc(Nc3ncc(C(N)=O)c(NC4CC4)n3)cc2)CC1 [Cerdulatinib] | > 10000 | 1270 | 1880 | > 10000
13 | CCN(CC)CCCC(C)Nc1ccnc2cc(Cl)ccc12 (centres undefined) [Chloroquine] | 8350 | 2730 | 3750 | 14700
14 | CC(C)[C@H]1C(=O)N[C@@H](CCCNC(=N)N)C(=O)NCC(=O)N[C@@H](CC(=O)O)C(=O)N[C@H](Cc2ccccc2)C(=O)N1C [Cilengitide] | > 10000 | > 10000 | 3250 | > 10000
15 | N.N.[Cl][Pt][Cl] [Cisplatin] | 2270 | 4700 | 1170 | 5180
16 | COc1c(OCCCN2CCOCC2)ccc2c1N=C(NC(=O)c1cnc(N)nc1)N1CCN=C21 [Copanlisib] | > 1000 | 405 | 113 | 22.1
17 | CC(=O)N(O)CCCCCNC(=O)CCC(=O)N(O)CCCCCNC(=O)CCC(=O)N(O)CCCCCN [Deferoxamine] | 3240 | 1480 | 1070 | 1970
18 | CCN(CC)C(=S)SSC(=S)N(CC)CC [Disulfiram] | 6650 | 291 | 600 | 303
19 | Cc1cc(Nc2cc(N3CCN(C)CC3)nc(/C=C/c3ccccc3)n2)n[nH]1 [ENMD-2076] | 2290 | 1060 | 763 | 361
20 | Cc1cc(C)c(CNC(=O)c2cc(-c3ccc(CN4CCOCC4)cc3)cc3c2cnn3C2CCCC2)c(=O)[nH]1 [EPZ-5687] | > 10000 | > 10000 | > 10000 | > 10000
21 | CCn1c(=O)c(-c2ccc(Cl)cc2Cl)cc2cnc(Nc3ccc(N4CCNCC4)c(F)c3)nc21 [FRAX486] | > 5000 | 1750 | 133 | > 5000
22 | Cc1cnc(Nc2ccc(OCCN3CCCC3)cc2)nc1Nc1cccc(S(=O)(=O)NC(C)(C)C)c1 [Fedratinib] | 3370 | 1440 | 1180 | 1520
23 | COc1cc(Nc2ncc(F)c(Nc3ccc4c(n3)N(COP(=O)(O)O)C(=O)C(C)(C)O4)n2)cc(OC)c1OC [Fostamatinib] | > 2500 | 514 | 416 | 685

Row | Structure (SMILES) | relative IC50 (HS-PSS [1]) [nM] | relative IC50 (HS-PSS [2]) [nM] | relative IC50 (HS-Sch-2) [nM] | relative IC50 (YST-1) [nM]
24 | O=C(NOCCO)c1ccc2cncn2c1Nc1ccc(I)cc1F [GDC-0623] | > 2500 | 300 | 368 | > 2500
25 | Cn1nccc1Nc1nccc(-c2ccn([C@H](CO)c3ccc(Cl)c(F)c3)c(=O)c2)n1 [GDC-0994] | > 10000 | > 10000 | 2760 | 4280
26 | CCCOc1ccn2c(C(C)=O)cc(-c3ccccc3S(C)(=O)=O)c2c1 [GSK2801] | > 10000 | > 10000 | > 10000 | > 10000
27 | CN(C)C1CCN(C(=O)c2ccc(NC(=O)Nc3ccc(-c4nc(N5CCOCC5)nc(N5CCOCC5)n4)cc3)cc2)CC1 [Gedatolisib] | > 1000 | 9.08 | 47.2 | 16.4
28 | CCN(CC)Cc1ccc2cc(COC(=O)Nc3ccc(C(=O)NO)cc3)ccc2c1 [Givinostat] | 253 | 351 | 166 | 63.7
29 | O=C(Nc1nc2ccccc2n1CCN1CCOCC1)c1cccc([N+](=O)[O-])c1 [IRAK1/4 inhibitor] | > 25000 | > 25000 | > 25000 | > 25000
30 | COc1cc(C(=O)O)ccc1NC(=O)[C@@H]1N[C@@H](CC(C)(C)C)[C@](C#N)(c2ccc(Cl)cc2F)[C@H]1c1cccc(Cl)c1F [Idasanutlin] | > 10000 | 178 | > 10000 | 62
31 | Cc1sc2c(c1C)C(c1ccc(Cl)cc1)=N[C@@H](CC(=O)OC(C)(C)C)c1nnc(C)n1-2 [JQ1] | > 10000 | 379 | 331 | 280
32 | NC(=O)N1CCC(CC(=O)N2CCC([C@H]3c4ncc(Br)cc4CCc4cc(Cl)cc(Br)c43)CC2)CC1 [Lonafarnib] | > 10000 | 2150 | 1660 | 1370
33 | Cc1c(F)cc(C(=O)NC2CC2)cc1-c1ccc(C(=O)NCC(C)(C)C)cn1 [Losmapimod] | > 10000 | > 10000 | > 10000 | 24.9
34 | CC[C@H](C)C(=O)O[C@H]1C[C@@H](C)C=C2C=C[C@H](C)[C@H](CC[C@@H]3C[C@@H](O)CC(=O)O3)[C@H]21 [Lovastatin] | > 10000 | > 10000 | > 10000 | > 10000
35 | CCNC(=O)c1noc(-c2cc(C(C)C)c(O)cc2O)c1-c1ccc(CN2CCOCC2)cc1 [Luminespib] | 51.8 | 39.3 | 11 | 10.3
36 | CN(C[C@@H]1COCCO1)S(=O)(=O)Nc1ccc2ccc3ncc(-c4cnn(C)c4)cc3c(=O)c2c1 [MK-2461] | > 10000 | 4100 | 3480 | 1680
37 | Cn1cc(-c2cnn3c(N)c(Br)c([C@@H]4CCCNC4)nc23)cn1 [MK-8776] | > 2500 | > 2500 | 360 | 362
38 | CC(=O)O[C@]1(C(C)=O)CC[C@H]2[C@@H]3C=C(C)C4=CC(=O)CC[C@]4(C)[C@H]3CC[C@@]21C [Megestrol acetate] | > 10000 | > 10000 | > 10000 | > 10000
39 | N[C@@H](Cc1ccc(N(CCCl)CCCl)cc1)C(=O)O [Melphalan] | > 12500 | > 12500 | > 12500 | > 12500
40 | CCN(CC)CCCC(C)Nc1c2ccc(Cl)cc2nc2ccc(OC)cc12 (centres undefined) [Mepacrine] | 1580 | 1440 | 1440 | 1790
41 | Cc1ccc(C(=O)Nc2ccc(Oc3cc4cnn(C)c4cc3-c3cn[nH]c3)c(F)c2)c(=O)n1-c1ccc(F)cc1 [Merestinib] | > 1000 | 245 | 371 | 150
42 | FC(F)(F)c1ccc(/C=C/c2nc(COc3ccc(CCCCn4ccnn4)cc3)co2)cc1 [Mubritinib] | > 1000 | 10.9 | 19.7 | 6.05
43 | Cc1cc(OCc2nnc(SC3CCCC3)n2-c2cccnc2)ccc1-c1ccc(S(C)(=O)=O)cc1 [NMS-873] | 2950 | 101 | 193 | 1490
44 | Nc1ncnc2c1c(-c1cccc(OCc3ccccc3)c1)cn2[C@H]1C[C@@H](CN2CCC2)C1 [NVP-AEW541] | 2380 | 3020 | 1960 | 654
45 | COc1ccc(-c2ccc3ncc4c(c3c2)n(-c2ccc(N3CCNCC3)c(C(F)(F)F)c2)c(=O)n4C)cn1 [NVP-BGT226] | 335 | 40.4 | 12.5 | 17.9
46 | Cc1cc(-c2ncc(CC(=O)Nc3ccc(-c4cnccn4)cn3)cc2C)ccn1 [NVP-LGK974] | > 10000 | 1970 | 2920 | > 10000
